Experimental findings from patent US20160193240A1, “Ulmoside-A: Useful For Prevention Or Cure Of Metabolic Diseases” (COUNCIL OF SCIENTIFIC & INDUSTRIAL RESEARCH, priority 2013, published 2016) are described below.

As usually defined, the Kd is the constant that tells how readily two partners part at equilibrium.

The structures appear in SMILES notation.

For one assay, the target named is T1, AdipoR1 (Homo sapiens, UniProt Q96A54).
T1 construct: expressed in transfected cells; host or cells: Chinese Hamster Ovary cells (ECACC 85050302), transient transfection with Lipofectamine LTX
T1 sequence (Q96A54 1-375): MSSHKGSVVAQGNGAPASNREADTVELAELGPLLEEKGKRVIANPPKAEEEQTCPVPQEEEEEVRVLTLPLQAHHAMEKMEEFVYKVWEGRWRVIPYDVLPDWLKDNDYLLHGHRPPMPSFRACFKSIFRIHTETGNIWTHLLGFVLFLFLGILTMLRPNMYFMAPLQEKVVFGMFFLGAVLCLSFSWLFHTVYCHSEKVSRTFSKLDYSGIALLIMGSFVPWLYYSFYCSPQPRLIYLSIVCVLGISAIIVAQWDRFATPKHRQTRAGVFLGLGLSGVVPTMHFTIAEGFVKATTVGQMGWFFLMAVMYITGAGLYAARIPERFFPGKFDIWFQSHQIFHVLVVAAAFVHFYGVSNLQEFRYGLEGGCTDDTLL
As to the kind of experiment: Radio-ligand saturation binding assay with 125I-ULMA, CHO cells transfected with AdipoR1. The method, then: (§1) D. CHO cells transfected with empty vector or AdipoR1 or R2 expression vectors were incubated with various concentrations of ^125I-ULMA for 2 h at 4° C. Following washes, cells were lysed and count per minute was analyzed in a gamma counter. 200 fold molar excess of unlabeled ULMA was used for each concentration of radiolabeled ULMA for determining nonspecific activity. Count per minutes were normalized with total cellular protein content followed by further normalization with non-specific activity and plotted. Data is mean±SEM from three experiments performed in triplicates.
(§2) Further validation of AdipoR-ULMA interaction and its quantitation was done using a radio-ligand saturation binding assay using ^125I-ULMA. ULMA was first radiolabeled using chloramines-T method. 10 μl of ^125I (20 MBq; BARC, Mumbai, India) was added to 100 μg GTDF in 5% acetic acid/methanol, then chloramine-T (Sigma, 4 μg in MilliQ H2O) was added, and the mixture was allowed to react at room temperature (24° C.) for 5 min. […] was used for protein estimation using standard Bradford assay and rest of the lysate was used for measuring radioactivity in a gamma-counter (Cole Palmer). The count per minute was normalized with protein concentration and was further normalized with non specific binding, which was determined for every concentration of ^125I-ULMA, using 200 fold molar excess of unlabeled ULMA.

The subject of another assay is GAL-PPARα. As to the kind of experiment: PPARα activation assay (GAL-PPARα / GAL4-Luc reporter) in HEK293 cells expressing endogenous AdipoR1. In kind it is cell-based, human. The procedure:
A. ULMA enhances PPARα ligand activity; HEK293 cells were seeded on to 24 well plates and after 24 h, transfected with 100 ng of GAL-PPARα and 100 ng GAL4-Luc along with 100 ng eGFPC1 (Clontech) plasmids using lipofectamine LTX (Invitrogen) according to manufacturer's instructions. 24 h after transfection, cells were treated with or without 100 pM GW-7647 alone or in combination with 100 nM ULMA or 1 μg/ml globular adiponectin (gAd) for 6 h. Following which, the cells were lysed and GFP fluorescence and firefly luciferase activities were measured. Luciferase activity was normalized with GFP fluorescence and plotted as fold activity over vehicle (0.1% DMSO) treated control. Data shown in mean±SEM of three independent experiments performed in duplicates. *p<0.05 as determined by two tailed unpaired student's t-test.
The potential of ULMA to activate adiponectin receptor signaling was evaluated using a PPARα activation assay. […] 24 hours following plating, these cells were transfected with 100 ng of GAL-PPARα (PPARα cDNA fused with GAL4 DNA binding domain) and 100 ng GAL4 upstream activation sequence driven luciferase (GAL4-Luc) reporter gene that is capable of binding to any protein fused to GAL4-DNA binding domain (in this case GAL-PPARα) and 100 ng Green fluorescence expressing plasmid (GFP) that was used as an internal control, using lipofectamine LTX transfection reagent (Invitrogen) according to manufacturers' instructions. […] The cells were then lysed and luciferase activity was measured in a Promega GloMax luminometer using steady Glo luciferase assay kit (Promega) according to manufacturers' instructions; and GFP fluorescence was measured in a fluorimeter (Polarstar Galaxy, BMG Labtech). […]

The target of another assay is T2, AdipoR2 (Homo sapiens, UniProt Q86V24).
T2 construct: expressed in transfected cells; host or cells: Chinese Hamster Ovary cells (ECACC 85050302), transient transfection with Lipofectamine LTX
T2 sequence (Q86V24 1-386): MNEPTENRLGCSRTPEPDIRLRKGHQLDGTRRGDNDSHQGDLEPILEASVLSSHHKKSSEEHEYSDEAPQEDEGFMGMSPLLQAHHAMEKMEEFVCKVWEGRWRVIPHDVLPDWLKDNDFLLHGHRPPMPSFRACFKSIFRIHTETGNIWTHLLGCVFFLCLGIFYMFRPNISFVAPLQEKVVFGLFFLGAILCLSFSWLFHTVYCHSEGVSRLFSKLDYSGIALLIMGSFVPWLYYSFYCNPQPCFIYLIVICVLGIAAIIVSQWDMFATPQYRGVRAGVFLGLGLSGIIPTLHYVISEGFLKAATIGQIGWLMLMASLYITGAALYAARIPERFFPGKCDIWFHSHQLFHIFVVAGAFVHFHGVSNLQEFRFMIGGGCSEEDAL
As to the kind of experiment: Radio-ligand saturation binding assay with 125I-ULMA, CHO cells transfected with AdipoR2. The procedure: as §1, §2

[1] abbreviates: 2 hours, ice cold, read-out: dissociation constant (Kd).

As for `O=C1c2c(cc(O)c([C@@H]3O[C@H](CO)[C@@H](O)[C@H](O)[C@H]3O)c2O)O[C@@H](c2ccc(O)c(O)c2)[C@@H]1O` [ULMA, (2S,3S)-(+)-3′,4′,5,7-tetrahydroxydihydroflavonol-6-C-β-D-glucopyranoside], the results for the “maximum binding (BMAX)” value on AdipoR1 and at AdipoR2 were 1410 fmol/mg of protein and 3950 fmol/mg of protein, respectively. In addition, the dissociation constant Kd was found to be 4.9 nM at AdipoR1 (setting [1]) and 326 nM on AdipoR2 (setting [1]). Moreover, the “potency in enhancing PPARα ligand activity, comparison” value with GAL-PPARα (100 nM ULMA vs 1 μg/ml globular adiponectin, with 100 pM GW-7647) was “more potent than globular adiponectin”. Also, the “enhancement of GW-7647 induced luciferase activity (PPARα ligand activity)” value in the assay on GAL-PPARα (co-treatment with 100 pM GW-7647, 100 nM ULMA or 1 μg/ml globular adiponectin, 6 hours) is listed as “further enhanced”.
